Assays:
Assay in all cases: cells
Format in all cases: cell-based
[1] = tested on: Hepatoma HepG2; conditions: cultured 48 h, MTT
Experimental: (§1) A cell strain: Hepatoma HepG2, cervical cancer Hela, lung cancer A549, breast cancer MCF7 cell line and human normal liver cell HL7702 were purchased from Wuhan Boster Biological Technology Co., Ltd.;
(§2) HepG2, Hela, A549, MCF 7 cells in logarithmic growth phase and human normal hepatocytes HL7702 were centrifuged at 1500 rpm for 5 min, and the supernatant was discarded; the cells were digested with a suitable amount of trypsin, and then suspended with a suitable amount of culture medium (HepG2, Hela and HL7702 cells were suspended with penicillin-streptomycin RPMI1640 culture medium containing 10% calf serum, A549 and MCF 7 cells with penicillin-streptomycin high glucose DMEM culture medium containing 10% calf serum, to adjust the cell concentration to 1.5×10^4 cells/well, the cells were seeded in 96-well plates, and the following experimental groups were set:
(§3) 0.10 mL of the cell suspension was added to each well, and incubated at 37° C., 5% CO2 and saturated humidity for 12 h, and the culture medium was discarded when the cell density was nearly 70%. […] 100 μl of 5 mg/ml MTT was added per well, standing for 4 h at 37° C. 100 μl of DMSO was added to each well, followed by shaking on a shaker for 10 min at 37° C., the absorbance (OD) was measured at 492 nm, and the MTT ratio was calculated as the OD value of drug group/OD value of negative control group.

[2] = tested on: breast cancer MCF7 cell line; conditions: cultured 48 h, MTT
Experimental: as §1, §2, §3

[3] = tested on: cervical cancer Hela; conditions: cultured 48 h, MTT
Experimental: as §1, §2, §3

[4] = tested on: human normal liver cell HL7702; conditions: human normal hepatocytes HL7702, cultured 48 h, MTT
Experimental: as §1, §2, §3

[5] = tested on: lung cancer A549; conditions: cultured 48 h, MTT
Experimental: as §1, §2, §3

Molecule	IC50 [1]	IC50 [2]	IC50 [3]	IC50 [4]	IC50 [5]
4β-NH-(2-(5-amino-2-methylphenyl)-4-(3-pyridyl) pyrimidine)-4′-demethylepipodophyllotoxin [Compound 38]	29.5 ± 3.2 µM	14.5 ± 3.8 µM	35.1 ± 5.9 µM	> 100 µM	15.5 ± 2 µM
4β-NH-(6-indazolamine)-4′-demethylepipodophyllotoxin [Compound 32]	19.4 ± 1.5 µM	21.4 ± 5.9 µM	6.4 ± 1.8 µM	17.7 ± 2.2 µM	25.6 ± 3.7 µM
4β-NH-(7-indazolamine)-4′-demethylepipodophyllotoxin [Compound 33]	22.5 ± 2.6 µM	16.4 ± 0.9 µM	34 ± 1.1 µM	29.8 ± 1.9 µM	24.5 ± 5 µM
COc1cc(C2c3cc4c(cc3C(Nc3cccc5c3C(=O)c3ccccc3C5=O)C3COC(=O)C23)OCO4)cc(OC)c1OC (stereo not drawn) [Compound 1, 4β-NH-(1-aminoanthraquinone) podophyllotoxin]	0.9 ± 0.05 µM	0.7 ± 0.01 µM	0.7 ± 0.1 µM	> 100 µM	0.2 ± 0.01 µM
COc1cc(C2c3cc4c(cc3C(Nc3ccc5c(c3)C(=O)c3ccccc3C5=O)C3COC(=O)C23)OCO4)cc(OC)c1OC (stereo not drawn) [Compound 2, 4β-NH-(2-aminoanthraquinone) podophyllotoxin]	9.6 ± 0.8 µM	2.9 ± 0.1 µM	2.5 ± 0.3 µM	> 100 µM	2.9 ± 0.4 µM
COc1cc([C@@H]2c3cc4c(cc3[C@@H](Nc3ccc5c(c3N)C(=O)c3ccccc3C5=O)[C@@H]3COC(=O)[C@H]23)OCO4)cc(OC)c1OC [Compound 3, 4β-NH-(1,2-diaminoanthraquinone) podophyllotoxin]	52 ± 8.4 µM	17.5 ± 2.1 µM	24.6 ± 3.2 µM	> 100 µM	> 100 µM
COc1cc(C2c3cc4c(cc3C(Nc3cccc5c3C(=O)c3cccc(N)c3C5=O)C3COC(=O)C23)OCO4)cc(OC)c1OC (stereo not drawn) [Compound 4, 4β-NH-(1,5-diaminoanthraquinone) podophyllotoxin]	4.7 ± 0.4 µM	3.4 ± 0.6 µM	4.6 ± 0.2 µM	> 100 µM	2.2 ± 0.3 µM
COc1cc([C@@H]2c3cc4c(cc3[C@@H](Nc3ccc5c(c3)C(=O)c3ccc(N)cc3C5=O)[C@@H]3COC(=O)[C@H]23)OCO4)cc(OC)c1OC [Compound 5, 4β-NH-(2,6-diaminoanthraquinone) podophyllotoxin]	9.1 ± 1.2 µM	> 100 µM	6.5 ± 0.5 µM	> 100 µM	> 100 µM
COc1cc([C@@H]2c3cc4c(cc3[C@@H](Nc3nc(N)nc5ccccc35)[C@@H]3COC(=O)[C@H]23)OCO4)cc(OC)c1OC [Compound 6, 4β-NH-(2,4-quinazolinediamine) podophyllotoxin]	> 100 µM	24.5 ± 4.4 µM	19.2 ± 1.9 µM	13.8 ± 1.9 µM	14.3 ± 2.3 µM
COc1cc(C2c3cc4c(cc3C(Nc3ccc5ncccc5c3)C3COC(=O)C23)OCO4)cc(OC)c1OC (stereo not drawn) [Compound 7, 4β-NH-(6-aminoquinoline) podophyllotoxin]	0.8 ± 0.01 µM	0.6 ± 0.03 µM	0.7 ± 0.03 µM	> 100 µM	0.3 ± 0.04 µM
COc1cc([C@@H]2c3cc4c(cc3[C@@H](Nc3cccc5ncccc35)[C@@H]3COC(=O)[C@H]23)OCO4)cc(OC)c1OC [Compound 8, 4β-NH-(5-aminoquinoline) podophyllotoxin]	> 100 µM	> 100 µM	> 100 µM	> 100 µM	> 100 µM
COc1cc(C2c3cc4c(cc3C(Nc3cccc5cnccc35)C3COC(=O)C23)OCO4)cc(OC)c1OC (stereo not drawn) [Compound 9, 4β-NH-(5-aminoisoquinoline) podophyllotoxin]	4.1 ± 1.1 µM	1.4 ± 0.3 µM	3.1 ± 0.2 µM	16.3 ± 2.8 µM	2.3 ± 0.1 µM
COc1cc([C@@H]2c3cc4c(cc3[C@@H](Nc3cccc5cccnc35)[C@@H]3COC(=O)[C@H]23)OCO4)cc(OC)c1OC [Compound 10, 4β-NH-(8-aminoquinoline) podophyllotoxin]	4.6 ± 0.4 µM	1 ± 0.1 µM	2.7 ± 0.3 µM	37 ± 4.8 µM	1.2 ± 0.2 µM

— patent US11319328B2 (priority 2017, dated 2022)
